Measurements published in patent US10130590B2, “Methods of treating cancer with atovaquone-related compounds” (DANA-FARBER CANCER INSTITUTE, INC., priority 2013, dated 2018).

What was measured:
[1] = system: gp130; experiment: Western blot of total gp130; type: cell-based
Protocol: Western blotting was performed as previously described (Battle T E, Arbiser J, & Frank D A (2005) The natural product honokiol induces caspase dependent apoptosis in B-cell chronic lymphocytic leukemia (B-CLL) cells. Blood 106(2):690-697). Antibodies to phospho-MAPK (9101), total MAPK (9102), phospho-Y705 STAT3 (9131), phospho-S6 (2215), total S6 (2217), phospho-4E-BP1 (9451), total 4E-BP1 (9644), total RSK (9355), phospho-S6K (9234, 85 used at 1:5000), total S6K (2708), phospho-eIF2α (9721, used at 1:1000), total eIF2α (5324), ATF4 (11815, used at 1:1000), PDGFRβ (3169), IGF1Rβ (9750), EGFR (2232), and HER2 (2242) were from Cell Signaling Technology. Phospho-RSK antibody was from R&D (AF889). Antibodies to total STAT3 (sc-482) and gp130 (sc-656, used at 1:1000) were from Santa Cruz Biotechnology. […] Cell viability was measured as ATP-dependent luminescence by Cell Titer Glo (Promega).
(§1) Since atovaquone reduced gp130 expression at the cell surface, it was asked whether this effect was accompanied by reduced total gp130 in the cell. To address this question, a time course of atovaquone treatment was performed and total cellular gp130 was measured by Western blotting in U266 cells treated with atovaquone at 20 μM. […]
MEF, MDA-MB-468, and SKBR3 cells were treated with atovaquone (25 μM) for 6 or 12 hours, then analyzed by Western blot for expression of gp130 and various other receptors. […]

[2] = system: STAT3; experiment: Western blot of STAT3 phosphorylation in reporter and cancer cell lines; type: cell-based, human
Protocol: Western blotting was performed as previously described (Battle T E, Arbiser J, & Frank D A (2005) The natural product honokiol induces caspase dependent apoptosis in B-cell chronic lymphocytic leukemia (B-CLL) cells. Blood 106(2):690-697). Antibodies to phospho-MAPK (9101), total MAPK (9102), phospho-Y705 STAT3 (9131), phospho-S6 (2215), total S6 (2217), phospho-4E-BP1 (9451), total 4E-BP1 (9644), total RSK (9355), phospho-S6K (9234, 85 used at 1:5000), total S6K (2708), phospho-eIF2α (9721, used at 1:1000), total eIF2α (5324), ATF4 (11815, used at 1:1000), PDGFRβ (3169), IGF1Rβ (9750), EGFR (2232), and HER2 (2242) were from Cell Signaling Technology. Phospho-RSK antibody was from R&D (AF889). Antibodies to total STAT3 (sc-482) and gp130 (sc-656, used at 1:1000) were from Santa Cruz Biotechnology. Phospho-S727 STAT3 antibody was described previously (229). REDD1 antibody was from Proteintech (10638-1-AP, used at 1:1000). Antibody recognizing full-length and cleaved ATF6 was from Abcam (ab122897, used at 1:1000). Antibodies to tubulin (T5168) and beta actin (A5316) were from Sigma. All antibodies were used at 1:10000 dilution for western blot unless otherwise noted. For immunoprecipitations, cells were lysed in 500 μl lysis buffer (0.5% NP-40, 150 mM NaCl, 50 mM Tris pH 7.5, with protease and phosphatase inhibitors freshly added at 1:100 [Pierce, PI78443]) on ice for 15 minutes, then centrifuged for 10 minutes at 14,000 RPM and 4° C. The supernatant was transferred to a new tube and incubated with 10 μl JAK2 antibody (Santa Cruz sc-278) or a mix of two TYK2 antibodies, 10 μl of each (Santa Cruz sc-5271 and Cell Signaling Technology 9312). Immunoprecipitation was performed overnight at 4° C. with rotation. The next day, 75 μl of protein A/G beads (Santa Cruz sc-2003) were washed twice in lysis buffer, then incubated with immunoprecipitates overnight as before. The next day, the beads were spun down (1 min. at 7,500 RPM and 4° C.) and washed 3 times with 650 μl lysis buffer for 10 minutes at 4° C. with rotation, then boiled in 50 μl sample buffer+10% β-mercaptoethanol. For Western blot, 20 μl were loaded per lane. For detection of phospho-tyrosine, a mixture of two pan-phospho-tyrosine antibodies (Cell Signaling Technology 9411 and 9416, 1:1000 of each) was used. Antibody to phospho-Y1007/1008 JAK2 was from Cell Signaling 86 Technology (3771, used at 1:1000). Antibody to phospho-Y570 JAK2 was from Millipore (09-241, used at 1:1000). Luminometric Assays Luciferase reporter cell lines were described previously (186). Firefly luciferase values were normalized by concurrent cell viability. Cell viability was measured as ATP-dependent luminescence by Cell Titer Glo (Promega).
The mechanism by which atovaquone inhibits STAT3 was investigated. STAT3-luc reporter cells were pre-treated with atovaquone (20 μM) for 1 hr, and then stimulated with IL-6 (10 ng/ml) for 15 minutes, 30 minutes, 1 hours, or 2 hours. Since STAT3 transcriptional activity is critically dependent on tyrosine phosphorylation, Western blotting was performed to see if atovaquone affected STAT3 phosphorylation. […] Next, atovaquone was used to treat U266 (2.5 hours), HEL (6 hours), or INA-6 cells (4 hours). […] In U266 and INA-6 cells, the source of STAT3 activation is JAK-dependent IL-6 signaling, while in HEL cells, STAT3 is activated by mutant JAK2-V617F. Given that atovaquone inhibits constitutive STAT3 activation in cancer cells, it was asked whether atovaquone inhibits expression of endogenous STAT3 target genes in this context.
as §1

[3] = system: gp130 mRNA; experiment: gp130 mRNA expression (qRT-PCR); type: cell-based; conditions: MEF, MDA-MB, SKBR3, U266; 25 μM, 12 hours
Protocol: Total RNA was reverse transcribed using random hexamers and assayed by qRT-PCR as previously described (see, Grivennikov S I, Greten F R, & Karin M (2010) Immunity, inflammation, and cancer. Cell 140(6):883-899).
MEF, MDA-MB-468, and SKBR3 cells were treated with atovaquone (25 μM) for 6 or 12 hours, then analyzed by Western blot for expression of gp130 and various other receptors. […] In contrast, levels of other receptors—such as PDGFR-β, EGFR, HER2, and IGF1R-β—were not affected, again indicating a specific effect on gp130. […] In summary, atovaquone rapidly induces specific loss of cell-surface gp130, while total gp130 declines secondarily due to protein degradation.

`O=C1C(O)=C([C@H]2CC[C@H](c3ccc(Cl)cc3)CC2)C(=O)c2ccccc21` [atovaquone, trans-2-[4-(4-chlorophenyl)cyclohexyl]-3-hydroxy-1,4-naphthalenedione] was tested, and the “total gp130 in other cell lines” value ([1]; MEF, SKBR3, MDA-MB-468, 25 μM, 6 or 12 hours) was “induced loss of total gp130 after prolonged treatment”, the “total cellular gp130, time course” value ([1]; U266, 20 μM) was “not reduced except at much longer time points” and the “STAT3 tyrosine phosphorylation following IL-6 stimulation” value ([2]; STAT3 reporter cells, 20 μM pre-treatment 1 hr, IL-6 (10 ng/ml)) was “reduced STAT3 tyrosine phosphorylation”. The “constitutive STAT3 tyrosine phosphorylation” value ([2]; U266 (2.5 hours), HEL (6 hours), INA-6 (4 hours)) was “inhibited constitutive STAT3 tyrosine phosphorylation”, the “time after which STAT3 phosphorylation was inhibited” value ([2]; U266, 20 μM, time course) was 10 min and the STAT3 serine phosphorylation ([2]; U266, HEL, INA-6 cells) was “not affected”. For the same compound, the “inhibition of STAT3 phosphorylation after cycloheximide pre-treatment” value ([2]; U266, cycloheximide 2 μg/ml 1 hour, atovaquone 15 μM 2.5 hours) was “did not affect the inhibition of STAT3 phosphorylation” and the “gp130 mRNA expression” value [3] was “not significantly changed”.
